Assay results taken from patent US20250099427A1, “Drug and Method of Treating or Preventing Renal Disease Using Drug” (Showa University, priority 2018, published 2025).

What was measured:
Format in all cases: in vivo, mouse
[1] = test system: Acute Renal Failure Animal Model; assay: Test using acute renal failure animal model (renal ischemia and reperfusion), renal function parameters; conditions: for Cer: creatinine clearance; for FENa: fractional excretion of sodium; for KW: kidney weight
Description: A male ddY strain mouse (30 g) was used as an experimental animal. Under anesthesia with isoflurane, the right flank was incised about 2 cm to expose the kidney. After ligating the renal arteries and veins and the ureter, the right kidney was isolated.
A recovery period of 2 weeks was given, and then an acute renal failure mouse model was produced. Under anesthesia with isoflurane, the left abdomen was incised about 3 cm to expose the left kidney, and the fat around the renal arteries and veins was removed. The blood flow in the left renal arteries and veins was blocked using an atraumatic clip, and the kidney was left in ischemia for 45 minutes. The blood flow was then reperfused by removing the atraumatic clip, the kidney was returned to the abdominal cavity, and the flank was sutured. Mice similarly subjected to the steps other than the ischemia and reperfusion steps using the atraumatic clip were designated as a sham group (eight mice).
After 15 minutes of the initiation of ischemia, the vehicle, SMTP-7, SMTP-27, SMTP-44D, and edaravone were continuously administered to the femoral vein for 30 minutes.
24 hours after the ischemia and reperfusion processes, urine was collected for 24 hours using a metabolic cage, and the urinary output (UF; μL/min/kg) was measured. During collecting urine, only water was freely given. After urine collection, the body weight of each mouse was measured, and blood was collected from the abdominal aorta under anesthesia with isoflurane. After blood collection, the left kidney was isolated and the fat was removed in physiological saline. The kidney weight (KW; mg/g) was measured, and then the kidney was fixed in a 10% neutral buffered formalin solution for Hematoxylin Eosin (HE) staining.
The collected blood was centrifuged at 800×g for 15 minutes at 25° C. to collect serum. Further, the urine collected using a metabolic cage was also used to evaluate renal function. In order to evaluate parameters in the serum, blood urea nitrogen (BUN; mg/dL) was measured using a QuantiChrom Urea Assay Kit (Funakoshi Co., Ltd.). Serum creatinine concentration (Scr; mg/dL) and urinary creatinine concentration (Ucr; mg/dL) were measured using LabAssay (trademark) Creatinine (manufactured by Wako Pure Chemical Industries, Ltd.), and creatinine clearance (Ccr; mL/min/kg) was calculated. The concentrations of sodium in the serum and urine were measured using Fuji Dry Chem 7000 (manufactured by FUJIFILM Corporation), and fractional excretion of sodium (FENa; %) was calculated. Urinary albumin concentration (Ualb; mg/hr/kg) was measured using Albwel M (manufactured by Cosmo Bio Co., Ltd.).
(§1) In Table 11, the experimental results are expressed in mean±standard error in eight mice in each group. For comparison among multiple groups, firstly, one-way analysis of variance (ANOVA) was conducted, and then a Bonferroni test was conducted, if significant difference was recognized. Significant difference was recognized with a significance level of less than 5% (P<0.05).

[2] = test system: Acute Renal Failure Animal Model; assay: Acute renal failure animal model, pathological tissue specimen (HE staining) lesion scores; conditions: 3 mg/kg
Method: 24 hours after the ischemia and reperfusion processes, urine was collected for 24 hours using a metabolic cage, measurement of body weight was conducted, and blood was collected. Thereafter, nephrectomy was conducted, and formalin-fixed kidney was permeated with paraffin using an automatic embedding device to produce a paraffin block. The paraffin block was sliced into 3 μm sections with a microtome, and placed on a slide glass. Then, the sections were stretched with a paraffin stretcher at 52° C., and sufficiently dried overnight in a paraffin melter at 37° C. After deparaffinization and washing with water, the sections were stained with a Mayer's hematoxylin staining solution for 1 minute and washed with running water for 15 minutes. Thereafter, the sections were stained with an eosin staining solution for 45 seconds, and dehydrated with 80% to 100% ethanol, followed by clearing with xylene and sealing with marinol. Each specimen was examined microscopically at a magnification of 50 using an optical microscope. With respect to tubular dilatation, tubular necrosis, and tubular casts in the cortex, outer zone of outer medulla, and inner zone of outer medulla, the percentage of lesions in each site was evaluated according to the following criteria.
as §1, with “12,” for “11,”

[3] = test system: Chronic Renal Failure Animal Model; assay: Test using chronic renal failure animal model (nephrectomy + acetic acid application), renal function parameters; conditions: Table 10 experiment (edaravone instead of SMTP-7); 30 mg/kg, same regimen as the SMTP-7 30 mg/kg group
Method: A male ddY strain mouse (body weight: 30 g to 40 g) was used. Under anesthesia with isoflurane, the right flank of the mouse was incised, the renal arteries and veins were ligated, and then the right kidney was isolated. After suturing, acrinol was applied to the suture site as a disinfection treatment, and enrofloxacin was subcutaneously administered at 5 mg/kg as a preventive measure against infection, and acetaminophen was subcutaneously administered at 75 mg/kg as an analgesic treatment. After a recovery period of 3 to 4 weeks, the left abdomen of the mouse was incised, 100% acetic acid was applied to both sides of the kidney 10 times. This was defined as one course, and two courses were conducted at 5 minute intervals. After suturing, postoperative treatment was conducted in the same manner as in the removal of one of the kidneys. Considering the effect of surgery, a sham group to which acetic acid was not applied was provided.
4 weeks after the application of acetic acid, SMTP-7 was administered at a dose of 10 mg/kg or 30 mg/kg. The administration was carried out three times a week for 8 consecutive weeks by intraperitoneal administration. In addition, physiological saline was similarly administered to the sham group (without acetic acid application) and the Control group (with acetic acid application).
12 weeks after the application of acetic acid, urine was collected for 24 hours using a metabolic cage, and the urinary output was measured. During collecting urine, water was freely given. After urine collection, blood was collected from the descending aorta, the collected blood was centrifuged at 3000 rpm for 15 minutes, serum was separated, and BUN (urea nitrogen) and sCr (serum creatinine value) were measured. Further, protein and creatinine in the urine were also measured to calculate creatinine clearance (Ccr). BUN was measured using Urea B-test Wako (manufactured by Wako Pure Chemical Industries, Ltd.) and a QuantiChrom Urea Assay Kit (manufactured by Funakoshi Co., Ltd.), sCr was measured using Lab Assay Creatinine (manufactured by Wako Pure Chemical Industries, Ltd.), and urinary protein was measured using a BCA Protein assay kit (Thermo Fisher Scientific).
Renal function was evaluated by measuring BUN, sCr, urinary output, and urinary protein. In addition, urinary creatinine was measured to calculate creatinine clearance (Ccr).
In Table 9, the experimental results are expressed in mean±standard error. With reference to statistically significant difference, an unpaired test between two groups (Student's t-test) was conducted for comparison between two groups, and one-way analysis of variance was conducted and then a Dunnett test was conducted for comparison among multiple groups. In all cases, a significance level of 5% or less (P<0.05) was regarded as significant difference.
The experiment and evaluation were carried out in the same manner as in the SMTP-7 (30 mg/kg) administration group, except that edaravone (30 mg/kg) was administered instead of SMTP-7 in the SMTP-7 (30 mg/kg) administration group.

[4] = 30 mg/kg continuous femoral vein 30 min from 15 min after start of 45 min ischemia, mean±SE, 8 mice
[5] = 30 mg/kg, acute renal failure model
[6] = 30 mg/kg continuous femoral vein 30 min from 15 min after start of 45 min ischemia, mean±SE, 8 mice, 30 mg/kg
[7] = urinary albumin, 30 mg/kg continuous femoral vein 30 min from 15 min after start of 45 min ischemia, mean±SE, 8 mice
[8] = urinary output, 30 mg/kg continuous femoral vein 30 min from 15 min after start of 45 min ischemia, mean±SE, 8 mice
[9] = 3 mg/kg continuous femoral vein 30 min from 15 min after start of 45 min ischemia, mean±SE, 8 mice
[10] = 3 mg/kg, acute renal failure model
[11] = 3 mg/kg continuous femoral vein 30 min from 15 min after start of 45 min ischemia, mean±SE, 8 mice, 3 mg/kg
[12] = points 0 (no lesion) to 4 (severe, 50% or more), mean±SE, 8 mice

## CC(C)=CCC/C(C)=C/CCC1(C)Oc2c(c(O)cc3c2CN(c2cc(C(=O)O)ccc2O)C3=O)CC1O (stereo not drawn) [SMTP-27]
[1]; [4]
  BUN: 59.7 ± 10.5 mg/dL
  Scr: 0.5 ± 0.0 mg/dL
[1]; [5]
  UF: 4.67 ± 0.984 mL/h/kg
  Ualb: 2.0 ± 0.4 mg/h/kg
[1]; [6]
  Cer: 150 ± 6 mL/h/kg
  FENa: 0.8±0.1%
  KW: 13.8 ± 0.7 mg/g
[1]; [7]
  Ualb: 2 ± 0.4 mg/h/kg
[1]; [8]
  UF: 4.67 ± 0.984 mL/h/kg

## CC(C)=CCCC(C)=CCCC1(C)Oc2c(c(O)cc3c2CN(C(C(=O)O)c2ccc(O)cc2)C3=O)CC1O (stereo not drawn) [SMTP-44D]
[1]; [4]
  BUN: 55.7 ± 14.2 mg/dL
  Scr: 0.6 ± 0.1 mg/dL
[1]; [5]
  UF: 6.192 ± 2.008 mL/h/kg
  Ualb: 1.3 ± 0.3 mg/h/kg
[1]; [6]
  Cer: 138 ± 24 mL/h/kg
  FENa: 1.2±0.1%
  KW: 12.3 ± 1.2 mg/g
[1]; [7]
  Ualb: 1.3 ± 0.3 mg/h/kg
[1]; [8]
  UF: 6.19 ± 2.02 mL/h/kg

## CC1=NN(c2ccccc2)C(=O)C1 [edaravone, reference compound]
[1]; [9]
  BUN: 61.1 ± 5.9 mg/dL
  Scr: 0.5 ± 0.0 mg/dL
[1]; [10]
  UF: 3.32 ± 0.726 mL/h/kg
  Ualb: 0.9 ± 0.2 mg/h/kg
[1]; [11]
  Cer: 126 ± 12 mL/h/kg
  FENa: 1.0±0.1%
  KW: 13.4 ± 0.6 mg/g
[1]; urinary albumin, 3 mg/kg continuous femoral vein 30 min from 15 min after start of 45 min ischemia, mean±SE, 8 mice
  Ualb: 0.9 ± 0.2 mg/h/kg
[1]; urinary output, 3 mg/kg continuous femoral vein 30 min from 15 min after start of 45 min ischemia, mean±SE, 8 mice
  UF: 3.32 ± 0.726 mL/h/kg
[2]; compared to control group
  Histopathological changes (lesion changes), result in words: lesion changes were significantly improved only in tubular necrosis and tubular casts in the outer zone of outer medulla of the kidney and tubular casts in the inner zone of outer medulla
[2]; [12]
  Tubular cast score, Cortex: 0.9 ± 0.1
  Tubular cast score, Inner zone of outer medulla: 1.5 ± 0.4
  Tubular cast score, Outer zone of outer medulla: 1.0 ± 0.2
  Tubular dilatation score, Cortex: 3.0 ± 0.5
  Tubular dilatation score, Inner zone of outer medulla: 2.4 ± 0.5
  Tubular dilatation score, Outer zone of outer medulla: 2.4 ± 0.5
  Tubular necrosis score, Cortex: 0.9 ± 0.1
  Tubular necrosis score, Inner zone of outer medulla: 0.9 ± 0.1
  Tubular necrosis score, Outer zone of outer medulla: 0.9 ± 0.1
[3]
  Urinary output: 3.77 ± 0.704 mL/h/kg
  Urinary protein: 553 ± 109 mg/kg/day
